Data from patent US9809574B2, “Isoindoline or isoquinoline compounds, a process for their preparation and pharmaceutical compositions containing them” (LES LABORATOIRES SERVIER, priority 2013, dated 2017).
Counter-ions that a name gives are not always drawn.

How the values were obtained:
[1] = test system: RS4; 11 leukaemia cell line; assay: In vitro cytotoxicity, Microculture Tetrazolium Assay (MTT); format: cell-based; details: 11 cells exposed for 48 hours
Procedure: The cytotoxicity studies were carried out on the RS4; 11 leukaemia cell line and on H146 small Cell Lung Carcinoma cell line. The cells are distributed onto microplates and exposed to the test compounds for 48 hours. The cell viability is then quantified by a colorimetric assay, the Microculture Tetrazolium Assay (Cancer Res., 1987, 47, 939-942).

Bcl-2 protein = Bcl-2 protein (histag-Bcl-2, UniProtKB P10415) (Homo sapiens (Human), UniProt P10415); assay: Inhibition of Bcl-2 by the fluorescence polarisation technique; format: binding; details: fluorescence polarisation test; incubation for 2 hours; read-out: IC50 (nM) Bcl-2 FP
Bcl-2 protein, sequence (P10415 whole entry): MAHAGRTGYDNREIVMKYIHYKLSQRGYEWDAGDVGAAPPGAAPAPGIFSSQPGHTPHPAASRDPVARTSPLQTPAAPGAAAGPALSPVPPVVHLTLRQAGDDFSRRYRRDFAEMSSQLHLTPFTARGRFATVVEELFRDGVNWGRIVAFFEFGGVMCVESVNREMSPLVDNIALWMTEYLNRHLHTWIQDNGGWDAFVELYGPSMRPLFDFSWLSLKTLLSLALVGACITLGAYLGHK
From the text: For partial inhibitors, the percentage fluorescence polarisation inhibition for a given concentration of the test compound is indicated.

Structure (SMILES)	IC50 [1]	IC50 (Bcl-2 protein)	IC50 ([1]; Homo sapiens)
Cc1c(C(=O)N(C)c2ccc(O)cc2)cc(-c2cc3c(cc2C(=O)N2Cc4ccccc4C[C@H]2C)CN(C(=O)OC2CCC(NC(=O)OC(C)(C)C)CC2)CC3)n1C (stereo partly drawn) [Example 800, (1r,4r)-4-{[(tert-Butoxy)carbonyl]amino}cyclohexyl 6-{4-[(4-hydroxyphenyl)(methyl)carbamoyl]-1,5-dimethyl-1H-pyrrol-2-yl}-7-[(3R)-3-methyl-1,2,3,4-tetrahydroisoquinoline-2-carbonyl]-1,2,3,4-tetrahydroisoquinoline-2-carboxylate]	3.2 nM	2 nM	–
Cc1c(C(=O)N(C)c2ccccc2)cc(-c2cc3c(cc2C(=O)N2Cc4ccccc4C[C@H]2C)CN(C(=O)Oc2ccc(C#N)cc2)CC3)n1C [Example 786, 4-Cyanophenyl 6-{1,5-dimethyl-4-[methyl(phenyl)carbamoyl]-1H-pyrrol-2-yl}-7-[(3R)-3-methyl-1,2,3,4-tetrahydroisoquinoline-2-carbonyl]-1,2,3,4-tetrahydroisoquinoline-2-carboxylate]	–	8.4 nM	24 nM
Cc1ccc(CC(=O)N2CCc3cc(-c4cc(C(=O)N(C)c5ccc(O)cc5)c5n4CCCC5)c(C(=O)N4Cc5ccccc5C[C@H]4C)cc3C2)cc1 [Example 54, N-(4-Hydroxyphenyl)-N-methyl-3-{7-[(3R)-3-methyl-1,2,3,4-tetrahydroisoquinoline-2-carbonyl]-2-[2-(4-methylphenyl)acetyl]-1,2,3,4-tetrahydroisoquinolin-6-yl}-5,6,7,8-tetrahydroindolizine-1-carboxamide]	–	4 nM	2.4 nM
CN(C(=O)c1cc(-c2cc3c(cc2C(=O)N2Cc4ccccc4C[C@H]2CN2CCOCC2)CN(C(=O)COc2ccccc2)C3)n2c1CCCC2)c1ccc(O)cc1 [Example 156, N-(4-Hydroxyphenyl)-N-methyl-3-{6-[(3S)-3-(morpholin-4-ylmethyl)-1,2,3,4-tetrahydroisoquinoline-2-carbonyl]-2-(2-phenoxyacetyl)-2,3-dihydro-1H-isoindol-5-yl}-5,6,7,8-tetrahydroindolizine-1-carboxamide]	–	6.8 nM	121 nM
CN(C(=O)c1cc(-c2cc3c(cc2C(=O)N2Cc4ccccc4C[C@H]2CN2CCOCC2)CN(C(=O)NC(C)(C)C)C3)n2c1CCCC2)c1ccc(O)cc1 [Example 17, N-tert-Butyl-5-{1-[(4-hydroxyphenyl)(methyl)carbamoyl]-5,6,7,8-tetrahydroindolizin-3-yl}-6-[(3S)-3-(morpholin-4-ylmethyl)-1,2,3,4-tetrahydroisoquinoline-2-carbonyl]-2,3-dihydro-1H-isoindole-2-carboxamide hydrochloride]	–	91 nM	1760 nM
CNC(=O)N1Cc2cc(C(=O)N3Cc4ccccc4C[C@H]3C)c(-c3cc(C(=O)N(C)c4ccc(O)cc4)c4n3CCCC4)cc2C1 [Example 55, 5-{1-[(4-Hydroxyphenyl)(methyl)carbamoyl]-5,6,7,8-tetrahydroindolizin-3-yl}-N-methyl-6-[(3R)-3-methyl-1,2,3,4-tetrahydroisoquinoline-2-carbonyl]-2,3-dihydro-1H-isoindole-2-carboxamide]	–	16 nM	372 nM
C[C@@H]1Cc2ccccc2CN1C(=O)c1cc2c(cc1-c1cc(C(=O)N(C)c3ccc(O)cc3)c3n1CCCC3)CN(C(=O)NC(C)(C)C)C2 [Example 76, N-tert-Butyl-5-{1-[(4-hydroxyphenyl)(methyl)carbamoyl]-5,6,7,8-tetrahydroindolizin-3-yl}-6-[(3R)-3-methyl-1,2,3,4-tetrahydroisoquinoline-2-carbonyl]-2,3-dihydro-1H-isoindole-2-carboxamide]	–	24 nM	> 150 nM
CCc1ccc(OC(=O)N2CCc3cc(-c4cc(C(=O)N(C)c5ccc(O)cc5)c5n4CCCC5)c(C(=O)N4Cc5ccccc5C[C@H]4CN4CCOCC4)cc3C2)cc1 [Example 126, 4-Ethylphenyl 6-{1-[(4-hydroxyphenyl)(methyl)carbamoyl]-5,6,7,8-tetrahydroindolizin-3-yl}-7-[(3S)-3-(morpholin-4-ylmethyl)-1,2,3,4-tetrahydroisoquinoline-2-carbonyl]-1,2,3,4-tetrahydroisoquinoline-2-carboxylate]	–	5.9 nM	5.2 nM
Cc1c(C(=O)N(C)c2ccc(O)cc2)cc(-c2cc3c(cc2C(=O)N2Cc4ccccc4C[C@H]2C)CN(C(=O)[C@@H](N)c2ccccc2)C3)n1C [Example 173, 5-(2-[(2S)-2-Amino-2-phenylacetyl]-6-{[(3R)-3-methyl-3,4-dihydroisoquinolin-2(1H)-yl]carbonyl}-2,3-dihydro-1H-isoindol-5-yl)-N-(4-hydroxyphenyl)-N,1,2-trimethyl-1H-pyrrole-3-carboxamide]	–	55 nM	> 600 nM
Cc1c(C(=O)N(C)c2ccc(O)cc2)cc(-c2cc3c(cc2C(=O)N2Cc4ccccc4C[C@H]2CN2CCOCC2)CN(C(=O)Oc2ccc(C#N)cc2)CC3)n1C [Example 146, 4-Cyanophenyl 6-{4-[(4-hydroxyphenyl)(methyl)carbamoyl]-1,5-dimethyl-1H-pyrrol-2-yl}-7-[(3S)-3-(morpholin-4-ylmethyl)-1,2,3,4-tetrahydroisoquinoline-2-carbonyl]-1,2,3,4-tetrahydroisoquinoline-2-carboxylate]	–	2.8 nM	6 nM
CN(C(=O)c1cc(-c2cc3c(cc2C(=O)N2Cc4ccccc4C[C@H]2CN2CCOCC2)CN(C(=O)CCc2ccccc2)C3)n2c1CCCC2)c1ccc(O)cc1 [Example 9, N-(4-Hydroxyphenyl)-N-methyl-3-{6-[(3S)-3-(morpholin-4-ylmethyl)-1,2,3,4-tetrahydroisoquinoline-2-carbonyl]-2-(3-phenylpropanoyl)-2,3-dihydro-1H-isoindol-5-yl}-5,6,7,8-tetrahydroindolizine-1-carboxamide hydrochloride]	–	9 nM	125 nM
C[C@@H]1Cc2ccccc2CN1C(=O)c1cc2c(cc1-c1cc(C(=O)N(C)c3ccc(O)cc3)c3n1CCCC3)CN(C(=O)Nc1ccc(N3CCN(C)CC3)cc1)C2 [Example 65, 5-{1-[(4-Hydroxyphenyl)(methyl)carbamoyl]-5,6,7,8-tetrahydroindolizin-3-yl}-6-[(3R)-3-methyl-1,2,3,4-tetrahydroisoquinoline-2-carbonyl]-N-[4-(4-methylpiperazin-1-yl)phenyl]-2,3-dihydro-1H-isoindole-2-carboxamide]	–	6.5 nM	51 nM
Cc1ccc(OC(=O)N2Cc3cc(C(=O)N4Cc5ccccc5C[C@H]4C)c(-c4cc(C(=O)N(C)c5ccc(O)cc5)c5n4CCCC5)cc3C2)cc1 [Example 168, 4-Methylphenyl 5-{1-[(4-hydroxyphenyl)(methyl)carbamoyl]-5,6,7,8-tetrahydroindolizin-3-yl}-6-[(3R)-3-methyl-1,2,3,4-tetrahydroisoquinoline-2-carbonyl]-2,3-dihydro-1H-isoindole-2-carboxylate]	–	5.7 nM	6.6 nM
CCCCN(CCCC)C(=O)c1cc(-c2cc3c(cc2C(=O)N2CCc4ccccc4C2)CN(C(=O)Cc2ccccc2)CC3)n(C)c1C [Example 162, N,N-Dibutyl-1,2-dimethyl-5-[2-(2-phenylacetyl)-7-(1,2,3,4-tetrahydroisoquinoline-2-carbonyl)-1,2,3,4-tetrahydroisoquinolin-6-yl]-1H-pyrrole-3-carboxamide]	–	33 nM	> 150 nM
Cc1c(C(=O)N(C)c2ccc(O)cc2)cc(-c2cc3c(cc2C(=O)N2Cc4ccccc4C[C@H]2CN2CCN(C)CC2)CN(C(=O)Cc2ccccc2)CC3)n1C [Example 778, N-(4-Hydroxyphenyl)-N,1,2-trimethyl-5-{7-[(3S)-3-[(4-methylpiperazin-1-yl)methyl]-1,2,3,4-tetrahydroisoquinoline-2-carbonyl]-2-(2-phenylacetyl)-1,2,3,4-tetrahydroisoquinolin-6-yl}-1H-pyrrole-3-carboxamide]	–	3.1 nM	52 nM
Cc1c(C(=O)N(C)c2ccccc2)cc(-c2cc3c(cc2C(=O)N2Cc4ccccc4C[C@H]2C)CN(C(=O)Oc2ccc(NCCN(C)C)cc2)CC3)n1C [Example 489, 4-{[2-(Dimethylamino)ethyl]amino}phenyl 6-{1,5-dimethyl-4-[methyl(phenyl)carbamoyl]-1H-pyrrol-2-yl}-7-[(3R)-3-methyl-1,2,3,4-tetrahydroisoquinoline-2-carbonyl]-1,2,3,4-tetrahydroisoquinoline-2-carboxylate]	–	3.2 nM	68 nM
CN(C(=O)c1cc(-c2cc3c(cc2C(=O)N2Cc4ccccc4C[C@H]2CN2CCOCC2)CN(C(=O)COc2ccccc2)C3)n2ccccc12)c1ccc(O)cc1 [Example 166, N-(4-Hydroxyphenyl)-N-methyl-3-{6-[(3S)-3-(morpholin-4-ylmethyl)-1,2,3,4-tetrahydroisoquinoline-2-carbonyl]-2-(2-phenoxyacetyl)-2,3-dihydro-1H-isoindol-5-yl}indolizine-1-carboxamide]	–	6.4 nM	58 nM
C[C@@H]1Cc2ccccc2CN1C(=O)c1cc2c(cc1-c1cc(C(=O)N(C)c3ccc(O)cc3)c3n1CCCC3)CN(CCCc1ccccc1)C2 [Example 30, N-(4-Hydroxyphenyl)-N-methyl-3-{6-[(3R)-3-methyl-1,2,3,4-tetrahydroisoquinoline-2-carbonyl]-2-(3-phenylpropyl)-2,3-dihydro-1H-isoindol-5-yl}-5,6,7,8-tetrahydroindolizine-1-carboxamide]	–	16 nM	119 nM
Cc1c(C(=O)N(C)c2ccc(O)cc2)cc(-c2cc3c(cc2C(=O)N2Cc4ccccc4C[C@H]2CN2CCOCC2)CN(C(=O)OC2CCCC2)CC3)n1C [Example 796, Cyclopentyl 6-{4-[(4-hydroxyphenyl)(methyl)carbamoyl]-1,5-dimethyl-1H-pyrrol-2-yl}-7-[(3S)-3-(morpholin-4-ylmethyl)-1,2,3,4-tetrahydroisoquinoline-2-carbonyl]-1,2,3,4-tetrahydroisoquinoline-2-carboxylate]	–	6.2 nM	48 nM
